Among the test systems are PC-3 prostate; BT-549 breast; EKVX NSCLC; HOP-62 NSCLC; DU-145 prostate; T-47D breast; HL-60(TB) leukemia; SF-539 CNS; HCT-116 colon; 786-0 renal.
What all share (assay): NCI anticancer screen, dose series, 48 h

Several values for one entry are separate records, joined by “and”; a condition that tells them apart may be missing. Identical values can stand only once.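 96-well plates; 48 h exposure; 5 concentrations. Endpoints by linear interpolation between flanking doses. Not reached: highest tested concentration assigned. The concentration for 50% growth inhibition is given as GI50. TGI: total growth inhibition.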

Take `OC(COc1ccc(Cl)cc1Cl)CN1CCCC1` (stereo not given): the TGI with PC-3 prostate, in the assay with BT-549 breast, in the assay on EKVX NSCLC, with HOP-62 NSCLC, in the assay with DU-145 prostate and with T-47D breast was over 100 µM throughout. The TGI with HL-60(TB) leukemia, in the assay with SF-539 CNS, in the assay on HCT-116 colon and in the assay on 786-0 renal was over 100 µM each time.
Regarding `O=S(=O)(NC(=S)Nc1ccccc1)c1ccc(N2N=C3c4ccccc4CC3C2c2ccc(Cl)cc2)cc1` (stereo not given), the GI50 with PC-3 prostate is 13.8 µM; in the assay with BT-549 breast, 33.2 µM; in the assay on EKVX NSCLC, 27.4 µM; with HOP-62 NSCLC, 41.3 µM; in the assay on DU-145 prostate it was 24.9 µM; in the assay on T-47D breast, 36.3 µM. For the same compound, the GI50 with HL-60(TB) leukemia is 21 µM; in the assay on SF-539 CNS, 24.2 µM; with HCT-116 colon it was 21.6 µM; in the assay on 786-0 renal, 32.4 µM. Further, the TGI in the assay on PC-3 prostate was 28.1 µM; in the assay on BT-549 breast, 78.3 µM; with EKVX NSCLC, 60.5 µM; in the assay on HOP-62 NSCLC, over 100 µM; in the assay with DU-145 prostate it was 51.4 µM; in the assay with T-47D breast it was over 100 µM. Moreover, the TGI with HL-60(TB) leukemia was 46.2 µM; in the assay with SF-539 CNS, 45.7 µM; with HCT-116 colon it was 55.2 µM; in the assay on 786-0 renal, over 100 µM.
For the compound `CC1=C[C@H]2c3c(c(O)c(O)c4oc5cc(O)cc(O)c5c(=O)c34)[C@H](c3cc(O)c(O)c4oc5cc(O)cc(O)c5c(=O)c34)[C@H]2C(C)(C)C1`, the GI50 was 1.96 µM and 1.8 µM in the assay on PC-3 prostate; 0.664 µM and 1.87 µM in the assay with BT-549 breast; 2.67 µM and 2.2 µM in the assay with EKVX NSCLC; 1.53 µM with HOP-62 NSCLC; 2.48 µM and 2.08 µM in the assay with DU-145 prostate; 2.78 µM in the assay on T-47D breast. Moreover, the GI50 was 2.04 µM and 2.1 µM in the assay on HL-60(TB) leukemia; 1.16 µM and 1.69 µM in the assay on SF-539 CNS; 0.462 µM and 0.947 µM in the assay on HCT-116 colon; 2.43 µM and 2.16 µM with 786-0 renal. Further, the TGI in the assay with PC-3 prostate is 7.41 µM and 5.46 µM; in the assay on BT-549 breast it was 8.48 µM and 6.24 µM; with EKVX NSCLC, 13.7 µM and 8.53 µM; in the assay with HOP-62 NSCLC, 4 µM and 6 µM; in the assay with DU-145 prostate it was 11.4 µM and 12.8 µM; with T-47D breast, 26 µM. The TGI with HL-60(TB) leukemia is 5.72 µM and 10.6 µM; with SF-539 CNS, 3.89 µM and 4.79 µM; in the assay on HCT-116 colon it was 1.87 µM and 2.22 µM; in the assay on 786-0 renal, 6.66 µM and 6.33 µM.
As to `Cc1sc2nc(-c3ccccn3)c(/C=N/N=C(N)N)n2c1C`, the GI50 with PC-3 prostate was 10.2 µM; with BT-549 breast, 1.92 µM; in the assay with EKVX NSCLC, 8.63 µM; in the assay on HOP-62 NSCLC, 8.06 µM; in the assay with DU-145 prostate, 4.88 µM; in the assay on T-47D breast, 3.93 µM. Besides, the GI50 with HL-60(TB) leukemia is 4.48 µM; in the assay on SF-539 CNS, 28.6 µM; in the assay on HCT-116 colon, 4.09 µM; in the assay with 786-0 renal, 4.84 µM. Further, the TGI in the assay with PC-3 prostate turned out to be 28.6 µM; with BT-549 breast it was 4.39 µM; in the assay with EKVX NSCLC it was 19.8 µM; with HOP-62 NSCLC it was 16.9 µM; in the assay with DU-145 prostate it was 12.6 µM; in the assay on T-47D breast, 10.2 µM. Besides, the TGI in the assay on HL-60(TB) leukemia is over 100 µM; in the assay on SF-539 CNS it was 50.8 µM; in the assay on HCT-116 colon, 9.74 µM; in the assay on 786-0 renal it was 12.6 µM.
For the compound `O=C1CC(c2ccccc2)Cc2nc3ccc(Cl)cc3cc21` (stereo not given), the GI50 in the assay with PC-3 prostate is 0.293 µM; in the assay on BT-549 breast, 0.503 µM; with EKVX NSCLC it was 0.732 µM; in the assay with HOP-62 NSCLC it was 0.459 µM; in the assay on DU-145 prostate, 0.217 µM; in the assay on T-47D breast, 6.17 µM. Further, the GI50 with HL-60(TB) leukemia is 0.143 µM; in the assay on SF-539 CNS, 0.211 µM; in the assay on HCT-116 colon it was 0.0472 µM; with 786-0 renal, 0.815 µM. Moreover, the TGI in the assay on PC-3 prostate is over 100 µM; in the assay with BT-549 breast, 11.3 µM; with EKVX NSCLC, over 100 µM; in the assay on HOP-62 NSCLC, over 100 µM; in the assay on DU-145 prostate, over 100 µM; in the assay on T-47D breast, over 89 µM. For the same compound, the TGI with HL-60(TB) leukemia was 0.566 µM; with SF-539 CNS it was 0.642 µM; in the assay on HCT-116 colon it was over 49.5 µM; in the assay with 786-0 renal it was over 74.7 µM.
With `COc1ccc(C(=O)Nc2ncc(Cc3ccc(F)cc3)s2)cc1`, the GI50 is 0.0513 µM in the assay with PC-3 prostate; 0.642 µM in the assay on BT-549 breast; 0.383 µM in the assay with EKVX NSCLC; 0.148 µM in the assay with HOP-62 NSCLC; 0.138 µM with DU-145 prostate; 0.06 µM with T-47D breast. Also, the GI50 in the assay with HL-60(TB) leukemia was 0.0315 µM; in the assay on SF-539 CNS it was 0.0448 µM; in the assay on HCT-116 colon, 0.0519 µM; with 786-0 renal, 0.11 µM. Moreover, the TGI in the assay on PC-3 prostate is over 100 µM; with BT-549 breast, over 100 µM; with EKVX NSCLC, over 100 µM; in the assay with HOP-62 NSCLC, over 56.5 µM; in the assay with DU-145 prostate, over 100 µM; in the assay with T-47D breast, over 100 µM. Besides, the TGI with HL-60(TB) leukemia is 0.169 µM; in the assay with SF-539 CNS it was 0.414 µM; with HCT-116 colon, over 100 µM; in the assay with 786-0 renal it was over 100 µM.
For the compound `CC(C)(C)c1ccc(C(=O)N/N=C/c2ccc(O)cc2O)cc1`, the GI50 is 0.706 µM with PC-3 prostate; 0.933 µM with BT-549 breast; 0.356 µM with EKVX NSCLC; 0.418 µM with HOP-62 NSCLC; 0.564 µM in the assay on DU-145 prostate; 0.786 µM in the assay on T-47D breast. Moreover, the GI50 in the assay on HL-60(TB) leukemia was 0.411 µM; with SF-539 CNS, 0.452 µM; in the assay with HCT-116 colon, 0.281 µM; in the assay on 786-0 renal, 0.53 µM. Moreover, the TGI with PC-3 prostate amounted to 21.8 µM; with BT-549 breast, 9.53 µM; in the assay on EKVX NSCLC it was 11.8 µM; in the assay on HOP-62 NSCLC, 11.1 µM; in the assay on DU-145 prostate, 14 µM; in the assay on T-47D breast, 32.6 µM. Moreover, the TGI was 8.27 µM with HL-60(TB) leukemia, 2.98 µM in the assay with SF-539 CNS, 11.5 µM in the assay with HCT-116 colon and 3.3 µM in the assay with 786-0 renal.
